# Measurements taken from US20100286145A1, “ISOPHTHALAMIDE DERIVATIVES INHIBITING BETA-SECRETASE ACTIVITY” (CoMentis, Inc., priority 2007, published 2010).
# Target: memapsin 2 (Homo sapiens, UniProt P56817)
# Experiment: Inhibition of memapsin 2 beta-secretase activity (fluorogenic substrate FS-2)
# Format: biochemical
# Conditions: memapsin 2, pH 4, 37° C., 20 minutes pre-incubation; read-out: M2Ki
# Protocol: Potency of compounds were determined by measurement of their inhibition of memapsin 2 activity toward a fluorescent substrate. Kinetic inhibition experiments were performed using the procedure as described in Ermolieff, et al. (Biochemistry 39:12450-12456 (2000), the teachings of which are incorporated hereby in their entirety). Briefly, assays were performed at pH 4, 37° C., by pre-incubation of memapsin 2 enzyme with compound for 20 minutes. Activity measurements were initiated by addition of a fluorogenic substrate FS-2 (Bachem Americas, Torrance, Calif.) MCA-SEVNLDAEFR-DNP (SEQ ID NO.: 2). The substrate was derived from 10 amino acids of the human amyloid precursor protein (APP), with the Swedish variant amino acids at the beta-secretase cleavage site. The terminal amino acid was modified from arginine to lysine to facilitate derivatization with a functional group for detection by autofluorescence. The amino acid sequence of the “core” peptide of the substrate is SEVNLDAEFK (SEQ ID NO.: 3). The amino terminus was derivatized with (7-methoxycoumarin-4-yl)acetyl (MCA), and the epsilon amine of the lysine side chain of the terminal residue (K in sequence SEVNLDAEFK (SEQ ID NO.: 3)) was derivatized with 2,4-dinitorphenyl (DNP).
# Fluorescent signal increase over time was measured as a rate of hydrolysis of the peptide substrate. Inhibition of hydrolytic rate was expressed relative to uninhibited controls and fit to a model for tight-binding inhibitors (J. Bieth, in “Proteinase Inhibitors,” Bayer Symposium V, 463-469, 1974, which is herein incorporated by reference for all purposes in its entirety).
# Chain of memapsin 2 (P56817 46-501): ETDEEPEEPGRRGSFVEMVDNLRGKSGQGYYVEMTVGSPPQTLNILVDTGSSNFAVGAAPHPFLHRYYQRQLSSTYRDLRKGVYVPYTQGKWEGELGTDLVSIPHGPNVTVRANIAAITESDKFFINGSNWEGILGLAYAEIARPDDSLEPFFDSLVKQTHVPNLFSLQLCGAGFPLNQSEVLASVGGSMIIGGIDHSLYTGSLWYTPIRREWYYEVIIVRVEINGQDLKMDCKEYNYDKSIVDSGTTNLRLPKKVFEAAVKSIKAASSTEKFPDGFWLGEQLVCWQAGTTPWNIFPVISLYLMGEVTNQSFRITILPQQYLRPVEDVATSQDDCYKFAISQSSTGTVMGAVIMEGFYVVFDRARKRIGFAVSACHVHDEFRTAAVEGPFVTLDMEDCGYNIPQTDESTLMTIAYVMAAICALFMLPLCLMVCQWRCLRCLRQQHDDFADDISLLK
row,SMILES,Ki
1,"Cc1csc(CNC(=O)c2cccc(C(=O)N[C@@H](Cc3ccccc3)[C@H](O)CNCc3ccc(CS(C)(=O)=O)c(C)n3)c2)n1 [Compound 101, N1-((2S,3R)-3-hydroxy-4-((6-methyl-5-(methylsulfonylmethyl)pyridin-2-yl)methylamino)-1-phenylbutan-2-yl)-N3-((4-methylthiazol-2-yl)methyl)isophthalamide]",> 501 nM
2,"COc1cccc(CNC[C@@H](O)[C@H](Cc2ccccc2)NC(=O)c2cc(C(=O)NCc3nccc(C)n3)cc(N(C)S(C)(=O)=O)c2)c1 [Compound 105, N1-((2S,3R)-3-hydroxy-4-(3-methoxybenzylamino)-1-phenylbutan-2-yl)-5-(N-methylmethylsulfonamido)-N3-((4-methylpyrimidin-2-yl)methyl)isophthalamide]",> 501 nM
3,"COc1cccc(CNC[C@@H](O)[C@H](Cc2ccccc2)NC(=O)c2cccc(C(=O)N(C)Cc3cccc(C)n3)c2)c1 [Compound 108, N1-((2S,3R)-3-hydroxy-4-(3-methoxybenzylamino)-1-phenylbutan-2-yl)-N3-methyl-N3-((6-methylpyridin-2-yl)methyl)isophthalamide]",301 to 500 nM
4,"C[C@@H](NC(=O)c1cc(C(=O)N[C@@H](Cc2ccccc2)[C@H](O)CNCc2cc(C(C)(C)C)ccc2O[Si](C)(C)C(C)(C)C)cc(N(C)S(C)(=O)=O)c1)c1ccccc1 [Compound 109, N1-((2S,3R)-4-(5-tert-butyl-2-(tert-butyldimethylsilyloxy)benzylamino)-3-hydroxy-1-phenylbutan-2-yl)-5-(N-methylmethylsulfonamido)-N3-((R)-1-phenylethyl)isophthalamide]",< 300 nM
5,"Cc1c(CNC[C@@H](O)[C@H](Cc2ccccc2)NC(=O)c2cc(C(=O)N[C@H](C)c3ccccc3)cc(N(C)S(C)(=O)=O)c2)cnn1C(C)(C)C [Compound 120, N1-((2S,3R)-4-((1-tert-butyl-5-methyl-1H-pyrazol-4-yl)methylamino)-3-hydroxy-1-phenylbutan-2-yl)-5-(N-methylmethylsulfonamido)-N3-((R)-1-phenylethyl)isophthalamide]",301 to 500 nM
6,"COc1cccc(CNC[C@@H](O)[C@H](Cc2ccccc2)NC(=O)c2cc(NO)cc(C(=O)N[C@H](C)c3ccccc3)c2)c1 [Compound 123, N1-((2S,3R)-3-hydroxy-4-(3-methoxybenzylamino)-1-phenylbutan-2-yl)-5-(hydroxyamino)-N3-((R)-1-phenylethyl)isophthalamide]",> 501 nM
7,"COc1cccc(CNC[C@@H](O)[C@H](Cc2ccccc2)NC(=O)c2cc(C(=O)NCc3cccc(C)n3)cc(N(C)S(C)(=O)=O)c2)c1 [Compound 127, N1-((2S,3R)-3-hydroxy-4-(3-methoxybenzylamino)-1-phenylbutan-2-yl)-5-(N-methylmethylsulfonamido)-N3-((6-methylpyridin-2-yl)methyl)isophthalamide]",> 501 nM
8,"Cc1csc(CN(C)C(=O)c2cccc(C(=O)N[C@H](Cc3ccccc3)[C@@H](O)CNCc3cncc(C(C)C)c3)c2)n1 [Compound 128, N1-((2R,3S)-3-hydroxy-4-((5-isopropylpyridin-3-yl)methylamino)-1-phenylbutan-2-yl)-N3-methyl-N3-((4-methylthiazol-2-yl)methyl)isophthalamide]",> 501 nM
9,"COCCn1ncc(CNC[C@@H](O)[C@H](Cc2ccccc2)NC(=O)c2cc(C(=O)N[C@H](C)c3ccccc3)cc(N(C)S(C)(=O)=O)c2)c1C [Compound 131, N1-((2S,3R)-3-hydroxy-4-((1-(2-methoxyethyl)-5-methyl-1H-pyrazol-4-yl)methylamino)-1-phenylbutan-2-yl)-5-(N-methylmethylsulfonamido)-N3-((R)-1-phenylethyl)isophthalamide]",< 300 nM
10,"COCCn1ncc(CNC[C@@H](O)[C@H](Cc2ccccc2)NC(=O)c2cccc(C(=O)N(C)Cc3nc(C)cs3)c2)c1C [Compound 132, N1-((2S,3R)-3-hydroxy-4-((1-(2-methoxyethyl)-5-methyl-1H-pyrazol-4-yl)methylamino)-1-phenylbutan-2-yl)-N3-methyl-N3-((4-methylthiazol-2-yl)methyl)isophthalamide]",> 501 nM
11,"COc1cccc(CNC[C@@H](O)[C@H](Cc2ccccc2)NC(=O)c2cccc(C(=O)N(C)Cc3nccc(C)n3)c2)c1 [Compound 136, N1-((2S,3R)-3-hydroxy-4-(3-methoxybenzylamino)-1-phenylbutan-2-yl)-N3-methyl-N3-((4-methylpyrimidin-2-yl)methyl)isophthalamide]",> 501 nM
12,"C[C@@H](NC(=O)c1cc(C(=O)N[C@@H](Cc2ccccc2)[C@H](O)CNCc2cnn(C(C)(C)C)c2)cc(N(C)S(C)(=O)=O)c1)c1ccccc1 [Compound 138, N1-((2S,3R)-4-((1-tert-butyl-1H-pyrazol-4-yl)methylamino)-3-hydroxy-1-phenylbutan-2-yl)-5-(N-methylmethylsulfonamido)-N3-((R)-1-phenylethyl)isophthalamide]",> 501 nM
13,"Cc1csc(CN(C)C(=O)c2cccc(C(=O)N[C@@H](Cc3ccccc3)[C@@H](O)CNCc3cncc(C(C)C)c3)c2)n1 [Compound 147, N1-((2S,3S)-3-hydroxy-4-((5-isopropylpyridin-3-yl)methylamino)-1-phenylbutan-2-yl)-N3-methyl-N3-((4-methylthiazol-2-yl)methyl)isophthalamide]",> 501 nM
14,"Cc1csc(CN(C)C(=O)c2cccc(C(=O)N[C@H](Cc3ccccc3)[C@H](O)CNCc3cncc(C(C)C)c3)c2)n1 [Compound 151, N1-((2R,3R)-3-hydroxy-4-((5-isopropylpyridin-3-yl)methylamino)-1-phenylbutan-2-yl)-N3-methyl-N3-((4-methylthiazol-2-yl)methyl)isophthalamide]",> 501 nM
15,"CCN(CC)c1cccc(CNC[C@@H](O)[C@H](Cc2ccccc2)NC(=O)c2cccc(C(=O)N(C)Cc3nc(C)cs3)c2)c1 [Compound 152, N1-((2S,3R)-4-(3-(diethylamino)benzylamino)-3-hydroxy-1-phenylbutan-2-yl)-N3-methyl-N3-((4-methylthiazol-2-yl)methyl)isophthalamide]",< 300 nM
16,"Cc1csc(CN(C)C(=O)c2cccc(C(=O)N[C@@H](Cc3ccccc3)[C@H](O)CNCc3cc(C(C)C)cnc3C)c2)n1 [Compound 153, N1-((2S,3R)-3-hydroxy-4-((5-isopropyl-2-methylpyridin-3-yl)methylamino)-1-phenylbutan-2-yl)-N3-methyl-N3-((4-methylthiazol-2-yl)methyl)isophthalamide]",< 300 nM
17,"Cc1csc(CN(C)C(=O)c2cccc(C(=O)N[C@@H](Cc3ccccc3)[C@H](O)CN(Cc3cnn(C)c3)Cc3cnn(C)c3)c2)n1 [Compound 156, N1-((2S,3R)-4-(bis((1-methyl-1H-pyrazol-4-yl)methyl)amino)-3-hydroxy-1-phenylbutan-2-yl)-N3-methyl-N3-((4-methylthiazol-2-yl)methyl)isophthalamide]",> 501 nM
18,"Cc1csc(CN(C)C(=O)c2cccc(C(=O)N[C@@H](Cc3ccccc3)[C@H](O)CNC(C)c3cccc(C(F)F)c3)c2)n1 (stereo partly drawn) [Compound 157, N1-((2S,3R)-4-(1-(3-(difluoromethyl)phenyl)ethylamino)-3-hydroxy-1-phenylbutan-2-yl)-N3-methyl-N3-((4-methylthiazol-2-yl)methyl)isophthalamide]",< 300 nM
19,"C=C(C)c1cc(O)cc(CNC[C@@H](O)[C@H](Cc2ccccc2)NC(=O)c2cccc(C(=O)N(C)Cc3nc(C)cs3)c2)c1 [Compound 159, N1-((2S,3R)-3-hydroxy-4-(3-hydroxy-5-(prop-1-en-2-yl)benzylamino)-1-phenylbutan-2-yl)-N3-methyl-N3-((4-methylthiazol-2-yl)methyl)isophthalamide]",< 300 nM
20,"Cc1csc(CN(C)C(=O)c2cccc(C(=O)N[C@@H](Cc3ccccc3)[C@H](O)CNCc3cccc(C(C)O)c3)c2)n1 (stereo partly drawn) [Compound 160, N1-((2S,3R)-3-hydroxy-4-(3-(1-hydroxyethyl)benzylamino)-1-phenylbutan-2-yl)-N3-methyl-N3-((4-methylthiazol-2-yl)methyl)isophthalamide]",< 300 nM
21,"COc1cccc(CNC[C@@H](O)[C@H](Cc2ccccc2)NC(=O)c2cc(C(=O)N(C)Cc3nc(C)cs3)cc(-c3ccncc3)c2)c1 [Compound 203, N1-((2S,3R)-3-hydroxy-4-(3-methoxybenzylamino)-1-phenylbutan-2-yl)-N3-methyl-N3-((4-methylthiazol-2-yl)methyl)-5-(pyridin-4-yl)isophthalamide]",< 300 nM

# Same assay, conditions: memapsin 2, pH 4, 37° C., fluorogenic substrate FS-2; read-out: M2Ki
row,SMILES,Ki
1,"Cc1csc(CN(C)C(=O)c2cc(C(=O)N[C@@H](Cc3ccccc3)[C@H](O)CNCc3cccc(C(F)(F)F)c3)cc(-c3cnco3)c2)n1 [Compound 219, N1-((2S,3R)-3-hydroxy-1-phenyl-4-(3-(trifluoromethyl)benzylamino)butan-2-yl)-N3-methyl-N3-((4-methylthiazol-2-yl)methyl)-5-(oxazol-5-yl)isophthalamide]",< 300 nM
2,"Cc1csc(CN(C)C(=O)c2cccc(C(=O)N[C@@H](Cc3ccccc3)[C@H](O)CNCc3cc(-c4ccncc4)cc(C(F)(F)F)c3)c2)n1 [Compound 275, N1-((2S,3R)-3-hydroxy-1-phenyl-4-(3-(pyridin-4-yl)-5-(trifluoromethyl)benzylamino)butan-2-yl)-N3-methyl-N3-((4-methylthiazol-2-yl)methyl)isophthalamide]",< 300 nM
